According to ChEMBL document CHEMBL3860063, “New potently bioactive alkaloids from Crinum erubescens” (Bioorg Med Chem, 2016):
pIC50: −log10 of the molar value.

Experiments:
Plasmodium falciparum = experiment: Antiplasmodial activity against chloroquine/mefloquine-resistant Plasmodium falciparum Dd2 measured after 72 hrs by SYBR Green1-based fluorescence assay; type: functional; conditions: Dd2, 72 h
[1] = Antiproliferative activity against human A2780 cells measured after 2 days by AlamarBlue assay; type: functional, cell-based; conditions: A2780, 48 h

| SMILES | pIC50 (Plasmodium falciparum) | pIC50 [1] |
| --- | --- | --- |
| CO[C@@H]1[C@@H](OC)[C@H](O[C@@H]2CC(=O)[C@@H]3CCN(Cc4cc5c(cc43)OCO5)C(=O)[C@H]2O)O[C@H](CO)[C@H]1OC | 6.74 | 7.79 |
| CO[C@@H]1[C@@H](OC)[C@H](O[C@@H]2CC(=O)[C@@H]3CCN(Cc4cc5c(cc43)OCO5)C(=O)[C@H]2O)O[C@H](C)[C@H]1OC | 6.59 | 7.55 |
| CO[C@H]1[C@@H]2OCOCO[C@H]2[C@H](O[C@@H]2CC(=O)[C@@H]3CCN(Cc4cc5c(cc43)OCO5)C(=O)[C@H]2O)O[C@@H]1C | 7.59 | 7.60 |
| CO[C@H]1[C@@H]2OCOCO[C@H]2[C@H](O[C@@H]2CC(=O)[C@@H]3CCN(Cc4cc5c(cc43)OCO5)C(=O)[C@H]2O)O[C@@H]1CO | 7.52 | 7.95 |
| C[C@@H]1CC[C@H]2[C@@H](C)C(=O)O[C@@H]3O[C@@]4(C)CC[C@@H]1[C@]32OO4 [ARTEMISININ] | 8.22 | – |
